Source: ChEMBL document CHEMBL1201862, “PubChem BioAssay data set” (2004)
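Results reflect a 48-hour exposure of cells in 96-well plates to compound at five concentrations. Abbreviation: GI50, concentration required for 50% inhibition of growth.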 Active and inactive are the calls of the source. No stated cut-off is given here; in the data, active = GI50 up to about 1.1 µM and inactive = higher.

Columns and labels:
Assay in all cases: growth of human tumour cells (NCI), 48 h
[1] = test system: IGROV-1
[2] = test system: HL-60
[3] = test system: M14
[4] = test system: EKVX
[5] = test system: Malme-3M
[6] = test system: DMS-273
[7] = test system: HCT-116
[8] = test system: CAKI-1
[9] = test system: SK-MEL-28
[10] = test system: KM12
[11] = test system: U-251
[12] = test system: OVCAR-5
[13] = test system: MOLT-4
[14] = test system: NCI-H522
[15] = test system: SF-268
[16] = test system: MCF7
[17] = test system: T47D
[18] = test system: DU-145
[19] = test system: BT-549
[20] = test system: MDA-MB-435

Measured: GI50

C/N=c1\ss/c(=N\C(=S)N(C)C)n1-c1ccccc1
inactive: [1] 97.7 µM | [2] > 100 µM | [3] > 100 µM | [4] > 100 µM | [5] > 100 µM | [6] > 100 µM | [7] > 72.8 µM | [8] > 100 µM | [9] > 100 µM | [10] > 100 µM | [11] 67 µM | [12] > 100 µM | [13] > 100 µM | [14] 9.14 µM | [15] 34 µM

COC(=O)c1ccc(/N=N/N(C)COc2ccc(Br)cc2)cc1
inactive: [1] > 100 µM | [2] 20.2 µM | [16] > 58.3 µM | [4] > 75.2 µM | [5] > 100 µM | [6] > 89.9 µM | [7] > 100 µM | [8] > 57.7 µM | [9] > 100 µM | [10] 75.5 µM | [11] > 71.3 µM | [12] > 83.8 µM | [13] 26.6 µM | [14] 43.5 µM | [15] > 75.5 µM

O=C(Cc1ccccc1)NN1C(=O)C(Cl)C1c1ccc(Cl)cc1 (stereo not drawn)
inactive: [1] > 100 µM | [2] 92.7 µM | [3] > 100 µM | [4] > 100 µM | [5] > 100 µM | [6] > 100 µM | [7] > 100 µM | [8] > 100 µM | [9] > 100 µM | [10] > 100 µM | [11] > 100 µM | [12] > 100 µM | [13] 30.6 µM | [14] > 100 µM | [15] > 100 µM

CC#N.O[C@@H]1CCCC[C@@H]1O.O[C@@H]1CCCC[C@@H]1O.[TeH2]
inactive: [1] 26.9 µM | [2] 15.4 µM | [3] > 100 µM | [4] > 100 µM | [5] > 100 µM | [6] 19.6 µM | [7] 15.4 µM | [8] > 100 µM | [9] 72.3 µM | [10] 50.8 µM | [11] 12.9 µM | [12] 16.3 µM | [13] 13.8 µM | [14] 37.3 µM | [15] 69.2 µM

CC(=O)C(CN(C)C)C(c1ccccc1)c1c(O)c2ccccc2oc1=O (stereo not drawn)
inactive: [1] > 100 µM | [2] > 100 µM | [3] > 100 µM | [4] > 100 µM | [5] > 100 µM | [6] > 100 µM | [7] > 100 µM | [8] > 100 µM | [9] > 100 µM | [10] > 100 µM | [11] > 100 µM | [12] > 100 µM | [13] > 100 µM | [14] > 100 µM | [15] > 100 µM

CC(C)Cc1ccc(C(C)C(=O)N2CCN(/C=C/c3ccccc3)CC2)cc1 (stereo not drawn)
inactive: [1] 15.1 µM | [2] 3.94 µM | [16] 16 µM | [4] 15.8 µM | [5] 16.3 µM | [6] 11.4 µM | [7] 13.4 µM | [9] 17.7 µM | [10] 15.5 µM | [11] 12.9 µM | [12] 13.9 µM | [13] 6.15 µM | [14] 11.6 µM | [15] 16.3 µM

CN(C)CC1(Cc2ccccc2)CC/C(=C\c2ccccc2)C1=O (stereo not drawn)
inactive: [1] 47.8 µM | [2] 20.4 µM | [3] 49.3 µM | [5] 44 µM | [6] 36.5 µM | [7] 29.1 µM | [8] 49.1 µM | [9] > 100 µM | [10] 40.3 µM | [11] 32.8 µM | [12] 40.6 µM | [13] 24 µM | [14] 15.2 µM | [15] 61 µM

CC12CCC(C(=O)N3CC=CCC3)(OC1=O)C2(C)C (stereo not drawn)
inactive: [1] > 100 µM | [2] > 100 µM | [16] > 100 µM | [4] > 100 µM | [5] > 100 µM | [6] > 100 µM | [7] > 100 µM | [8] > 100 µM | [9] > 100 µM | [10] > 100 µM | [11] > 100 µM | [12] > 100 µM | [13] > 100 µM | [14] > 100 µM | [15] > 100 µM

CCOC(=O)/C=C/n1c2ccccc2c(=O)c2cc(OC)ccc21
inactive: [1] > 100 µM | [2] > 100 µM | [3] > 100 µM | [4] > 100 µM | [5] > 100 µM | [6] 49 µM | [7] 90.6 µM | [8] > 100 µM | [9] > 100 µM | [10] > 100 µM | [11] 71.8 µM | [12] > 100 µM | [13] > 100 µM | [14] 54.2 µM | [15] > 100 µM

Sc1nc(S)nc(Oc2ccc(Cl)c(Cl)c2)n1
inactive: [1] > 56.1 µM | [17] 24.4 µM | [2] 40 µM | [16] 50.6 µM | [3] 43.5 µM | [18] 57.9 µM | [4] 42.1 µM | [5] > 47.2 µM | [6] 19 µM | [7] 30.6 µM | [8] 46.3 µM | [9] > 54 µM | [10] 14.6 µM | [11] 44.8 µM | [12] 59.2 µM | [13] 18.1 µM | [19] 57.8 µM | [14] 18.5 µM | [15] > 52.4 µM | [20] > 100 µM
